The source of these data is patent US9884063B2, “Amido-substituted azole compounds” (Bayer Pharma Aktiengesellschaft, priority 2014, dated 2018).

Some results are limits rather than exact numbers.

The first experiment addresses T1, TNKS2 (Homo sapiens, UniProt Q9H2K2).
T1 sequence (Q9H2K2 1-1166): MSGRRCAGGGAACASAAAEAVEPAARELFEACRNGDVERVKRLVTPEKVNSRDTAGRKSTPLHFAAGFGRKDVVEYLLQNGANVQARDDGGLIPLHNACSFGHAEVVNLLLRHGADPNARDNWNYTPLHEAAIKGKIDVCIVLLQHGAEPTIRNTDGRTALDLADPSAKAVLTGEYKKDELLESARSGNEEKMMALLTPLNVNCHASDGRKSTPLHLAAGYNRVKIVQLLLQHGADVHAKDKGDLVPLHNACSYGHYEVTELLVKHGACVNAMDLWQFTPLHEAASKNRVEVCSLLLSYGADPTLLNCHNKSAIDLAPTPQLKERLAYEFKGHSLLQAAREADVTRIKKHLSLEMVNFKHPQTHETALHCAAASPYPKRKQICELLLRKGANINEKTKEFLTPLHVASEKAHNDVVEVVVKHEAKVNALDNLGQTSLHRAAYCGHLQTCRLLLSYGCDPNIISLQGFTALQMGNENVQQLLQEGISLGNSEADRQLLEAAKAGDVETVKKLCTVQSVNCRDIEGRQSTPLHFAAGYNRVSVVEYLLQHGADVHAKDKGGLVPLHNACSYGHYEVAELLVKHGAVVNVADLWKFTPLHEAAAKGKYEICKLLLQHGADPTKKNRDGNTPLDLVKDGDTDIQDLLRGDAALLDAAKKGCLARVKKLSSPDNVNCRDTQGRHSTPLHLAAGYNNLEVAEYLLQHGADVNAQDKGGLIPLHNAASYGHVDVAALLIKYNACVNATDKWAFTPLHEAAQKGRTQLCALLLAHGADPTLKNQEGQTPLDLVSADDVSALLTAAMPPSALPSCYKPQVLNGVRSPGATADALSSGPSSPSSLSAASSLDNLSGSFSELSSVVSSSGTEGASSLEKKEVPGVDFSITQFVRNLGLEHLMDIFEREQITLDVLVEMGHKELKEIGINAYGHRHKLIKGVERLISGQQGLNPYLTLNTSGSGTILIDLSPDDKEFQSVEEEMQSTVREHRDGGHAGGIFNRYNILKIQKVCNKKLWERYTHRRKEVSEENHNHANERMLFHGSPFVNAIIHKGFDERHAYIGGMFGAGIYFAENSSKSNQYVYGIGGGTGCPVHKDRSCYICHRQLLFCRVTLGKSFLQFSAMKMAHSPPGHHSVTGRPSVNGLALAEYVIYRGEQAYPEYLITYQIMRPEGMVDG
Nature of the experiment: TNKS2 Assay 1 (TNKS2 Histone Ribosylation Assay Kit, biotin-labeled NAD+). The experiment is classed as biochemical. The settings on record: chemiluminescent readout, 384 well, Table 2. As for the experimental part:
The potency of the compounds according to the invention was assessed applying an in vitro inhibition assay. The TNKS2 catalyzed NAD^+-dependent ribosylation of a suitable protein substrate was detected using a commercially available biotin/streptavidin binding based assay format [TNKS2 Histone Ribosylation Assay Kit (Biotin-labeled NAD+), Catalog #80572; BPS Bioscience, San Diego, USA]. Here, the incorporation of a biotin-labeled NAD+ during the TNKS2 catalyzed ribosylation reaction was detected with a streptavidin-HRP coupled chemi-luminescent readout. The intensity of the readout signal is proportional to the incorporated NAD^+. Inhibition of TNKS2 leads to a decreased incorporation of NAD^+ and consequently to a lower readout signal intensity. The concentration of a test compound which inhibits the enzyme activity by 50% (corresponds to half of the normed readout signal intensity) is reported as IC50.
The assay was conducted in a 384 well MTP format according to the manufacturer's protocol [bpsbioscience.com/poly-adp-ribose-polymerase/assay-kit/tnks2-histone-ribosylation-assay-kit-biotin-labeled-nad-80572 referencing: Brown, J. A., Marala, R. B. J. Pharmacol. Toxicol. Methods 2002 47:137-41]. and using a BMG Pherastar MTP reader [BMG-Labtech, Offenburg, Germany].
With `CNC(=O)c1nc[nH]c1C(=O)Nc1ccc(NC(=O)c2ccc(N3CCCC3)cc2F)cc1` [Example 3, N^5-(4-{[2-fluoro-4-(pyrrolidin-1-yl)benzoyl]amino}phenyl)-N^4-methyl-1H-imidazole-4,5-dicarboxamide], the IC50 is 30000 nM.

Compound `CCC(C)NC(=O)c1ncoc1C(=O)Nc1ccc(NC(=O)c2ccc(F)cc2Cl)cc1` (stereo not shown) [Example 7, N^4-sec-butyl-N^5-{4-[(2-chloro-4-fluorobenzoyl)amino]phenyl}-1,3-oxazole-4,5-dicarboxamide] returned an IC50 of 19000 nM. This IC50 lies about 1.6-fold lower than the previous one.

`CC(NC(=O)c1ncoc1C(=O)Nc1ccc(NC(=O)c2ccc(F)cc2Cl)cc1)c1ccccc1` (stereo not shown) [Example 8, N^5-{4-[(2-chloro-4-fluorobenzoyl)amino]phenyl}-N^4-(1-phenylethyl)-1,3-oxazole-4,5-dicarboxamide] returned an IC50 of 7000 nM. This IC50 is about 2.7-fold lower than that of the compound before.

As for `COC(=O)c1ncoc1C(=O)Nc1ccc(NC(=O)c2ccc(F)cc2Cl)cc1` [Example 14, Methyl 5-({4-[(2-chloro-4-fluorobenzoyl)amino]phenyl}carbamoyl)-1,3-oxazole-4-carboxylate], the IC50 is 300 nM.

Turning to `CC(C)NC(=O)c1ncoc1C(=O)Nc1ccc(NC(=O)c2ccc(F)cc2Cl)cc1` [Example 15, N^5-{4-[(2-chloro-4-fluorobenzoyl)amino]phenyl}-N^4-isopropyl-1,3-oxazole-4,5-dicarboxamide], inhibition was half-maximal at 1100 nM (IC50).

The experiment is the same for the next values; noted with them: chemiluminescent readout, 384 well, first table.
As for `CCC(C)NC(=O)c1ncoc1C(=O)Nc1ccc(NC(=O)c2ccc(F)cc2Cl)cc1` (stereo not shown) [Example 7, N^4-sec-butyl-N^5-{4-[(2-chloro-4-fluorobenzoyl)amino]phenyl}-1,3-oxazole-4,5-dicarboxamide], the IC50 came out at 19100 nM.

Compound `CC(NC(=O)c1ncoc1C(=O)Nc1ccc(NC(=O)c2ccc(F)cc2Cl)cc1)c1ccccc1` (stereo not shown) [Example 8, N^5-{4-[(2-chloro-4-fluorobenzoyl)amino]phenyl}-N^4-(1-phenylethyl)-1,3-oxazole-4,5-dicarboxamide] registered an IC50 of 7000 nM. This IC50 is about 2.7-fold lower than that of the compound before.

Regarding `COC(=O)c1ncoc1C(=O)Nc1ccc(NC(=O)c2ccc(F)cc2Cl)cc1` [Example 14, Methyl 5-({4-[(2-chloro-4-fluorobenzoyl)amino]phenyl}carbamoyl)-1,3-oxazole-4-carboxylate], the half-inhibitory concentration (IC50) is 300 nM.

Consider `CC(C)NC(=O)c1ncoc1C(=O)Nc1ccc(NC(=O)c2ccc(F)cc2Cl)cc1` [Example 15, N^5-{4-[(2-chloro-4-fluorobenzoyl)amino]phenyl}-N^4-isopropyl-1,3-oxazole-4,5-dicarboxamide], for which the half-maximal inhibitory concentration (IC50) was 1140 nM.

A further experiment deals with T1, TNKS2. Nature of the experiment: Modified TNKS2 Assay 2 (auto-parsylation, [3H]-NAD+ SPA). The experiment is classed as biochemical. To be noted: 6 nM TNKS2, 96 well.
Compound `O=C(Nc1ccc(NC(=O)c2nc[nH]c2C(=O)NCCN2CCCC(F)C2)cc1)c1ccc(F)cc1Cl` (stereo not shown) [Example 226, N^4-{4-[(2-chloro-4-fluorobenzoyl)amino]phenyl}-N^5-[2-(3-fluoropiperidin-1-yl)ethyl]-1H-imidazole-4,5-dicarboxamide] had a half-inhibitory concentration (IC50) of 2 nM. This lies in the single-digit nanomolar range.

`O=C(Nc1ccc(NC(=O)c2nc[nH]c2C(=O)NC2CCOC2)cc1)c1ccc(F)cc1Cl` (stereo not shown) [Example 236, N^4-{4-[(2-chloro-4-fluorobenzoyl)amino]phenyl}-N^5-(tetrahydrofuran-3-yl)-1H-imidazole-4,5-dicarboxamide] yielded a half-inhibitory concentration (IC50) of 60 nM.

Consider `CNC(=O)c1nc[nH]c1C(=O)Nc1ccc(NC(=O)c2ccccc2O)cc1` [Example 239, N^5-{4-[(2-hydroxybenzoyl)amino]phenyl}-N^4-methyl-1H-imidazole-4,5-dicarboxamide], for which the IC50 was greater than 10000 nM.

In turn, `CNC(=O)c1nc[nH]c1C(=O)Nc1ccc(NC(=O)c2cc(OC)c(OC)cc2Cl)cc1` [Example 240, N^5-{4-[(2-chloro-4,5-dimethoxybenzoyl)amino]phenyl}-N^4-methyl-1H-imidazole-4,5-dicarboxamide] returned a 50% inhibitory concentration (IC50) of 30 nM.

For the compound `CNC(=O)c1nc[nH]c1C(=O)Nc1ccc(NC(=O)c2ccccc2C(F)F)cc1` [Example 241, N^5-(4-{[2-(difluoromethyl)benzoyl]amino}phenyl)-N^4-methyl-1H-imidazole-4,5-dicarboxamide], the IC50 is 1800 nM.

In the case of `CNC(=O)c1nc[nH]c1C(=O)Nc1ccc(NC(=O)c2cc(F)c(F)cc2Cl)cc1` [Example 242, N^5-{4-[(2-chloro-4,5-difluorobenzoyl)amino]phenyl}-N^4-methyl-1H-imidazole-4,5-dicarboxamide], half-maximal inhibition (IC50) required 30 nM.

In turn, `CNC(=O)c1nc[nH]c1C(=O)Nc1ccc(NC(=O)c2ccccc2OC(F)(F)F)cc1` [Example 243, N^4-methyl-N^5-(4-{[2-(trifluoromethoxy)benzoyl]amino}phenyl)-1H-imidazole-4,5-dicarboxamide] registered a half-inhibitory concentration (IC50) greater than 10000 nM.

As to `CNC(=O)c1nc[nH]c1C(=O)Nc1ccc(NC(=O)c2ccc(C)cc2Cl)cc1` [Example 244, N^5-{4-[(2-chloro-4-methylbenzoyl)amino]phenyl}-N^4-methyl-1H-imidazole-4,5-dicarboxamide], the IC50 is 90 nM. This lies in the double-digit nanomolar range.

Compound `CNC(=O)c1nc[nH]c1C(=O)Nc1ccc(NC(=O)c2ncccc2Cl)cc1` [Example 247, N^5-(4-{[(3-chloropyridin-2-yl)carbonyl]amino}phenyl)-N^4-methyl-1H-imidazole-4,5-dicarboxamide] registered an IC50 of 570 nM.

The compound `CNC(=O)c1nc[nH]c1C(=O)Nc1ccc(NC(=O)c2cc(OC)ccc2Cl)cc1` [Example 248, N^5-{4-[(2-chloro-5-methoxybenzoyl)amino]phenyl}-N^4-methyl-1H-imidazole-4,5-dicarboxamide] came in with an IC50 of 480 nM. The IC50 values of the last two compounds are within 1.5-fold of each other.

Compound `CCOc1ccc(C(=O)Nc2ccc(NC(=O)c3[nH]cnc3C(=O)NC)cc2)c(Cl)c1` [Example 250, N^5-{4-[(2-chloro-4-ethoxybenzoyl)amino]phenyl}-N^4-methyl-1H-imidazole-4,5-dicarboxamide] came in with an IC50 of 220 nM.

In turn, `CNC(=O)c1nc[nH]c1C(=O)Nc1ccc(NC(=O)c2ccc(OC(F)F)cc2F)cc1` [Example 251, N^5-(4-{[4-(difluoromethoxy)-2-fluorobenzoyl]amino}phenyl)-N^4-methyl-1H-imidazole-4,5-dicarboxamide] showed an IC50 greater than 10000 nM.

Take `CNC(=O)c1nc[nH]c1C(=O)Nc1ccc(NC(=O)c2cccc(OC)c2Cl)cc1` [Example 252, N^5-{4-[(2-chloro-3-methoxybenzoyl)amino]phenyl}-N^4-methyl-1H-imidazole-4,5-dicarboxamide]: the half-maximal inhibitory concentration (IC50) is 3800 nM.

With `CNC(=O)c1nc[nH]c1C(=O)Nc1ccc(NC(=O)c2ccc(OC(F)(F)F)cc2F)cc1` [Example 253, N^5-(4-{[2-fluoro-4-(trifluoromethoxy)benzoyl]amino}phenyl)-N^4-methyl-1H-imidazole-4,5-dicarboxamide], the IC50 is greater than 10000 nM.

For the compound `CNC(=O)c1nc[nH]c1C(=O)Nc1ccc(NC(=O)c2cnccc2Cl)cc1` [Example 254, N^5-(4-{[(4-chloropyridin-3-yl)carbonyl]amino}phenyl)-N^4-methyl-1H-imidazole-4,5-dicarboxamide], the half-maximal inhibitory concentration (IC50) turned out to be 430 nM.

Consider `CCS(=N)(=O)c1ccc(C(=O)Nc2ccc(NC(=O)c3[nH]cnc3C(=O)NC)cc2)c(Cl)c1` (stereo not shown) [Example 255, N^5-(4-{[2-chloro-4-(S-ethylsulfonimidoyl)benzoyl]amino}phenyl)-N^4-methyl-1H-imidazole-4,5-dicarboxamide], for which the midpoint of inhibition, the IC50, lay at 640 nM.

For `CCS(=N)(=O)c1ccc(C(=O)Nc2ccc(NC(=O)c3[nH]cnc3C(=O)NCCN3CCCCC3)cc2)c(Cl)c1` (stereo not shown) [Example 256, N^5-(4-{[2-chloro-4-(S-ethylsulfonimidoyl)benzoyl]amino}phenyl)-N^4-[2-(piperidin-1-yl)ethyl]-1H-imidazole-4,5-dicarboxamide], the IC50 amounted to 10 nM.

The compound `CCNC(=O)c1nc[nH]c1C(=O)Nc1ccc(NC(=O)c2ccccc2S(C)(=O)=O)cc1` [Example 257, N^4-ethyl-N^5-(4-{[2-(methylsulfonyl)benzoyl]amino}phenyl)-1H-imidazole-4,5-dicarboxamide] returned an IC50 of 5000 nM.

Regarding `CCNC(=O)c1nc[nH]c1C(=O)Nc1ccc(NC(=O)c2ccc(OCC)cc2Cl)cc1` [Example 259, N^5-{4-[(2-chloro-4-ethoxybenzoyl)amino]phenyl}-N^4-ethyl-1H-imidazole-4,5-dicarboxamide], the 50% inhibitory concentration (IC50) worked out at 7600 nM.
